These are literature values, as cited in patent US11766390B2, “Method for dyeing keratinous material, comprising the use of an organosilicon compound, a colored effect pigment and a film-forming polymer II” (Henkel AG & Co. KGaA, priority 2019, dated 2023).

Structures are written as SMILES.

The conditions of this data set: for solubility in water: 25° C.

For the molecule `CCN(Cc1cccc(S(=O)(=O)[O-])c1)c1ccc(C(=C2C=CC(=[N+](CC)Cc3cccc(S(=O)(=O)[O-])c3)C=C2)c2ccccc2S(=O)(=O)[O-])cc1.[Na+].[Na+]` [Acid Blue 9], the solubility in water entry is recorded as “more than 20 % by weight”. As for `O=S(=O)([O-])c1ccc(N=Nc2c(O)ccc3ccccc23)cc1.[Na+]` [Acid Orange 7, sodium salt of 4-[(2-hydroxy-1-naphthyl)azo]benzene sulphonate], the solubility in water entry is on record as “more than 7 g/L”. As for `Nc1cc(S(=O)(=O)[O-])cc2cc(S(=O)(=O)[O-])c(N=Nc3ccccc3)c(O)c12.[Na+].[Na+]` [Acid Red 33, disodium salt of 5-amino-4-hydroxy-3-(phenylazo)-naphthalene-2,7-disulphonate], the solubility in water is 2500 µg/mL. As to `O=C([O-])c1c(Cl)c(Cl)c(Cl)c(Cl)c1-c1c2c(Br)cc(=O)c(Br)c-2oc2c(Br)c(O)cc(Br)c12.O=C([O-])c1c(Cl)c(Cl)c(Cl)c(Cl)c1-c1c2c(Br)cc(=O)c(Br)c-2oc2c(Br)c(O)cc(Br)c12.[Na+].[Na+]` [Acid Red 92, disodium salt of 3,4,5,6-tetrachloro-2-(1,4,5,8-tetrabromo-6-hydroxy-3-oxoxanthen-9-yl)benzoic acid], the solubility in water entry is “greater than 10 g/L”. As for `O=C([O-])C1=NN(c2ccc(S(=O)(=O)[O-])cc2)C(=O)C1N=Nc1ccc(S(=O)(=O)[O-])cc1.[Na+].[Na+].[Na+]` (centres unmarked) [Acid Yellow 23, trisodium salt of 4,5-dihydro-5-oxo-1-(4-sulfophenyl)-4-((4-sulfophenyl)azo)-1H-pyrazole-3-carboxylic acid], where the note is “at 25° C.”, the “solubility in water (in words)” value was “highly soluble”.
